Test results reported in ChEMBL document CHEMBL5137039, “Therapeutic potentials and structure-activity relationship of 1,3-benzodioxole N-carbamothioyl carboxamide derivatives as selective and potent antagonists of P2X4 and P2X7 receptors” (Eur J Med Chem, 2022).

Legend:
HeLa = assay: Cytotoxicity against human HeLa cells assessed as reduction in cell viability at 50 uM after 24 hrs by MTT assay relative to control; assay type: toxicity, cell-based
[1] = Cytotoxicity against human 1321N1 cells assessed as reduction in cell viability at 50 uM after 24 hrs by MTT assay relative to control; assay type: toxicity, cell-based; details: 1321n1, 24 h
HEK293 = assay: Cytotoxicity against HEK293 cells assessed as reduction in cell viability at 50 uM after 24 hrs by MTT assay relative to control; assay type: toxicity, cell-based; details: human, hek293, 24 h
[2] = target: T1, P2X purinoceptor 2 (Homo sapiens) (UniProt Q9UBL9); assay: Antagonist activity against human P2X2R stably transfected in human 1321N1 cells at 50 uM incubated for 30 mins by Fura-2 AM staining based calcium influx assay relative to control; assay type: cell-based; design: scale not given: the % may be the effect or the level left
T1 sequence (whole entry): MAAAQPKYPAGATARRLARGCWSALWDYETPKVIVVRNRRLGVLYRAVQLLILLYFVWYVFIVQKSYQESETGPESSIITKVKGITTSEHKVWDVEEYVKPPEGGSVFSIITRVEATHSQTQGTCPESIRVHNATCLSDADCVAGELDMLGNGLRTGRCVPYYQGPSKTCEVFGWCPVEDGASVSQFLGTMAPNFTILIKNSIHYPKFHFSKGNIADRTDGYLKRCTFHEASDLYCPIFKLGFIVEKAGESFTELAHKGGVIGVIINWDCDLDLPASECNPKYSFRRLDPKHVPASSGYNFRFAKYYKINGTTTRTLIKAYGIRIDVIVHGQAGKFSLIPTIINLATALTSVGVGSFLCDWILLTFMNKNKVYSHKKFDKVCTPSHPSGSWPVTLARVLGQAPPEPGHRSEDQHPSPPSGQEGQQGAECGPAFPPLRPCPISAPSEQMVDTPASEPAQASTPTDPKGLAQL

P2X purinoceptor 4 = target: T2, P2X purinoceptor 4 (Homo sapiens, UniProt Q99571); assay: Antagonist activity against human P2X4R stably transfected in human 1321N1 cells incubated for 30 mins by Fura-2 AM staining based calcium influx assay; assay type: cell-based
T2 sequence (Q99571 whole entry): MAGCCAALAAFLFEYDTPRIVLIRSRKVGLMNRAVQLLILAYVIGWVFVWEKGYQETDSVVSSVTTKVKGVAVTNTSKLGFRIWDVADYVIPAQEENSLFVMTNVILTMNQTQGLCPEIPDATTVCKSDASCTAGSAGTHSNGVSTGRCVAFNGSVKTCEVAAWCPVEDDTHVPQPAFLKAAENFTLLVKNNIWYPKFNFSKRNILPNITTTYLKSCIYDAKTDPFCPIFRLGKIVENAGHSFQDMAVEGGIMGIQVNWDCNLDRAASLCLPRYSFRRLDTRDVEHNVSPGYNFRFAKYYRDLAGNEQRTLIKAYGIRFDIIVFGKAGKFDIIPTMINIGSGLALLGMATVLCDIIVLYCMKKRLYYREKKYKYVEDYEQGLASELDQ

P2X purinoceptor 5 [3] = target: T3, P2X purinoceptor 5 (Homo sapiens, UniProt Q93086); assay: Antagonist activity against human P2X5R stably transfected in human 1321N1 cells at 50 uM incubated for 30 mins by Fura-2 AM staining based calcium influx assay relative to control; assay type: cell-based; design: scale not given: the % may be the effect or the level left
T3 sequence (Q93086 whole entry): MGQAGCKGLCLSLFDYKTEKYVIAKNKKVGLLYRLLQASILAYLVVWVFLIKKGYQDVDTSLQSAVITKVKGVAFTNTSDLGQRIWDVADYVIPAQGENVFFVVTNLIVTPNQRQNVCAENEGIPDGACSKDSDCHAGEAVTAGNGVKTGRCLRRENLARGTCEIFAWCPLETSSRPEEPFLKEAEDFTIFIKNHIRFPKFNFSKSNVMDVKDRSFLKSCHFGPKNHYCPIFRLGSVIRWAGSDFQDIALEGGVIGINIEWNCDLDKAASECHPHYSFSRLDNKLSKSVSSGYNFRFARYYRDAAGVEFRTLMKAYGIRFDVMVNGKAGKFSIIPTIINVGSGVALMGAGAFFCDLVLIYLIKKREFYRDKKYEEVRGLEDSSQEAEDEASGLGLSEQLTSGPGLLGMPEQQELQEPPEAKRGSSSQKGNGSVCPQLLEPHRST

P2X purinoceptor 7 [4] = target: T4, P2X purinoceptor 7 (Homo sapiens, UniProt Q99572); assay: Antagonist activity against human P2X7R stably transfected in human 1321N1 cells incubated for 30 mins by Fura-2 AM staining based calcium influx assay; assay type: cell-based
T4 sequence (Q99572 whole entry): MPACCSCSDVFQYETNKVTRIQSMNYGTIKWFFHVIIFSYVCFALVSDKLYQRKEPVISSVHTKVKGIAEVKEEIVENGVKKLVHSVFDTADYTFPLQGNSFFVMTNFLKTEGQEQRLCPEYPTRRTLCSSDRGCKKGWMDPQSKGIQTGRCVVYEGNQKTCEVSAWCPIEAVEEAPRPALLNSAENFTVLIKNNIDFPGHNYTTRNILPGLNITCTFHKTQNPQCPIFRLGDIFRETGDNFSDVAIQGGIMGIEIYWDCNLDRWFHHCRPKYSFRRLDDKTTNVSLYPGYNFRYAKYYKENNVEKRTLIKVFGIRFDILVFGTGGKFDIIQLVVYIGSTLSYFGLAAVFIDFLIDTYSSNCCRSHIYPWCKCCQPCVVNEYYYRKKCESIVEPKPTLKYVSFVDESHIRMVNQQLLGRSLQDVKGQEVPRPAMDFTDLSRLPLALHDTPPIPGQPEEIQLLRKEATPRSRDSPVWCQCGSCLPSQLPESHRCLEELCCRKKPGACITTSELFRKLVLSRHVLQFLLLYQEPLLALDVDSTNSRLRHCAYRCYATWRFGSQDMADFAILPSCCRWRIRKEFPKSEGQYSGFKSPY

P2X purinoceptor 7 [5] = target: T4, P2X purinoceptor 7; assay: Antagonist activity against human P2X7R stably transfected in human 1321N1 cells assessed as reduction in BzATP-induced activity incubated for 5 to 10 mins by EtBr staining based fluorescence assay; assay type: cell-based
[6] = target: T5, P2X purinoceptor 7 (Homo sapiens) (UniProt Q99572); assay: Antagonist activity against human P2X7R stably transfected in human 1321N1 cells at 50 uM incubated for 30 mins by Fura-2 AM staining based calcium influx assay relative to control; assay type: cell-based; design: scale not given: the % may be the effect or the level left
T5 sequence (whole entry): T4 sequence (Q99572 whole entry)

P2X purinoceptor 2 = target: T6, P2X purinoceptor 2 (Homo sapiens, UniProt Q9UBL9); assay: Antagonist activity against human P2X2R stably transfected in human 1321N1 cells incubated for 30 mins by Fura-2 AM staining based calcium influx assay; assay type: cell-based
T6 sequence (Q9UBL9 whole entry): T1 sequence (whole entry)

P2X purinoceptor 5 [7] = target: T3, P2X purinoceptor 5; assay: Antagonist activity against human P2X5R stably transfected in human 1321N1 cells incubated for 30 mins by Fura-2 AM staining based calcium influx assay; assay type: cell-based
[8] = target: T7, P2X purinoceptor 4 (Homo sapiens) (UniProt Q99571); assay: Antagonist activity against human P2X4R stably transfected in human 1321N1 cells assessed as ATP Emax at 0.05 uM incubated for 30 mins by Fura-2 AM staining based calcium influx assay relative to control; assay type: cell-based; details: filed as antagonist
T7 sequence (whole entry): T2 sequence (Q99571 whole entry)

[9] = target: T7, P2X purinoceptor 4 (Homo sapiens); assay: Antagonist activity against human P2X4R stably transfected in human 1321N1 cells assessed as ATP Emax at 0.1 uM incubated for 30 mins by Fura-2 AM staining based calcium influx assay relative to control; assay type: cell-based; details: filed as antagonist
[10] = target: T7, P2X purinoceptor 4 (Homo sapiens); assay: Antagonist activity against human P2X4R stably transfected in human 1321N1 cells assessed as ATP Emax at 0.2 uM incubated for 30 mins by Fura-2 AM staining based calcium influx assay relative to control; assay type: cell-based; details: filed as antagonist
[11] = target: T7, P2X purinoceptor 4 (Homo sapiens); assay: Antagonist activity against human P2X4R stably transfected in human 1321N1 cells at 50 uM incubated for 30 mins by Fura-2 AM staining based calcium influx assay relative to control; assay type: cell-based; design: scale not given: the % may be the effect or the level left
[12] = target: T5, P2X purinoceptor 7 (Homo sapiens); assay: Antagonist activity against human P2X7R stably transfected in human 1321N1 cells assessed as BzATP Emax at 0.05 uM incubated for 30 mins by Fura-2 AM staining based calcium influx assay relative to control; assay type: cell-based; details: filed as antagonist
[13] = target: T5, P2X purinoceptor 7 (Homo sapiens); assay: Antagonist activity against human P2X7R stably transfected in human 1321N1 cells assessed as BzATP Emax at 0.1 uM incubated for 30 mins by Fura-2 AM staining based calcium influx assay relative to control; assay type: cell-based; details: filed as antagonist
[14] = target: T5, P2X purinoceptor 7 (Homo sapiens); assay: Antagonist activity against human P2X7R stably transfected in human 1321N1 cells assessed as BzATP Emax at 0.2 uM incubated for 30 mins by Fura-2 AM staining based calcium influx assay relative to control; assay type: cell-based

SMILES	Activity [2]	IC50 (P2X purinoceptor 4)	Activity (P2X purinoceptor 5 [3])	IC50 (P2X purinoceptor 7 [4])	Activity (HeLa)	Activity [1]	Activity (HEK293)	further results
O=C(NC(=S)Nc1cc(Br)cc(C(F)(F)F)c1)c1ccc2c(c1)OCO2	22%	18200 nM	17%	1250 nM	5.59%	3.34%	4.48%	
CC(C)c1cc(Br)c(NC(=O)Nc2cccnc2)c(Br)c1					14.81%	16.7%	25.19%	Activity ([6]; filed as antagonist): 45%
Cc1cc(Br)ccc1NC(=S)NC(=O)c1ccc2c(c1)OCO2	18%	14300 nM	25%		1.64%	7.09%	3.38%	Activity [6]: 34%
Cc1ccc(C(=O)Nc2ccc(S(=O)(=O)O)c3cc(S(=O)(=O)O)cc(S(=O)(=O)O)c23)cc1NC(=O)c1cccc(NC(=O)Nc2cccc(C(=O)Nc3cc(C(=O)Nc4ccc(S(=O)(=O)O)c5cc(S(=O)(=O)O)cc(S(=O)(=O)O)c45)ccc3C)c2)c1 [SURAMIN]		4730 nM			11.46%	11.56%	49.01%	IC50 (P2X purinoceptor 2): 14000 nM; IC50 (P2X purinoceptor 5 [7]): 15800 nM
O=C(NC(=S)Nc1cc(Cl)c(O)c(Cl)c1)c1ccc2c(c1)OCO2		7640 nM		1640 nM				
O=C(O)c1ccc2c(c1)OCO2	21%		10%					Activity [11]: 29%
COc1cccc(NC(=S)NC(=O)c2ccc3c(c2)OCO3)c1	22%		25%		4.18%	4.15%	1.95%	Activity [11]: 19%; Activity [6]: 33%
COc1ccc(NC(=S)NC(=O)c2ccc3c(c2)OCO3)cc1	22%		12%		1.38%	3.32%	7.44%	Activity ([11]; filed as antagonist): 44%; Activity [6]: 36%
O=C(NC(=S)Nc1ccc([N+](=O)[O-])cc1)c1ccc2c(c1)OCO2		3760 nM		1890 nM				IC50 (P2X purinoceptor 5 [7]): 1650 nM
Cc1nc(/N=N/c2ccc(S(=O)(=O)O)cc2S(=O)(=O)O)c(COP(=O)(O)O)c(C=O)c1O					20.43%	12.41%	46.58%	
O=C(NC(=S)Nc1ccc(Br)cc1)c1ccc2c(c1)OCO2	35%	14300 nM	38%		7.64%	3.72%	2.64%	Activity [11]: 31%; Activity [6]: 22%

More lines, main results first:

Activity [2]	IC50 (P2X purinoceptor 4)	Activity (P2X purinoceptor 5 [3])	IC50 (P2X purinoceptor 7 [4])	SMILES	Activity (HeLa)	Activity [1]	Activity (HEK293)	further results
33%	1050 nM	32%	45 nM	NS(=O)(=O)c1ccc(CCNC(=S)NC(=O)c2ccc3c(c2)OCO3)cc1	4.26%	5.81%	5.77%	IC50 (P2X purinoceptor 7 [5]): 47 nM
17%	2170 nM	23%	110 nM	NS(=O)(=O)c1cccc(NC(=S)NC(=O)c2ccc3c(c2)OCO3)c1	2.52%	6.41%	4.19%	IC50 (P2X purinoceptor 7 [5]): 173 nM
39%	3670 nM	26%		COc1ccccc1NC(=S)NC(=O)c1ccc2c(c1)OCO2	1.7%	5.41%	4.6%	Activity [6]: 38%
38%	55 nM		3560 nM	O=C(NC(=S)Nc1c(Br)ccc(C(F)(F)F)c1Br)c1ccc2c(c1)OCO2	5.35%	7.19%	7.24%	Emax [8]: 90%; Emax [9]: 68%; Emax [10]: 40%
	935 nM		34 nM	O=C(NC(=S)Nc1cccnc1Cl)c1ccc2c(c1)OCO2	1.94%	2.82%	6.15%	IC50 (P2X purinoceptor 2): 35900 nM; IC50 (P2X purinoceptor 7 [5]): 34 nM
35%	39 nM	27%	13100 nM	CC(C)c1ccc(NC(=S)NC(=O)c2ccc3c(c2)OCO3)c(Br)c1	4.53%	3.83%	3.73%	
	2160 nM			O=C(NC(=S)Nc1ccccc1O)c1ccc2c(c1)OCO2				
	908 nM	29%	18 nM	O=C(NC(=S)Nc1cccc2cccnc12)c1ccc2c(c1)OCO2	5.45%	3.04%	1.42%	Activity ([2]; filed as antagonist): 41%; Emax [12]: 83%; Emax [13]: 68%; Emax [14]: 29%; IC50 (P2X purinoceptor 7 [5]): 30 nM
	1450 nM		902 nM	O=C(NC(=S)Nc1ccc(O)cc1)c1ccc2c(c1)OCO2				IC50 (P2X purinoceptor 5 [7]): 27600 nM; IC50 (P2X purinoceptor 7 [5]): 1110 nM
